This is an account of results in patent publication US9950993B2 (Rutgers, The State University of New Jersey, priority 2015, dated 2018).

The subject of this assay is Escherichia coli W4573. In words: Test A: MIC-based assay for efflux pump inhibition (enhancement of minocycline MIC). Conditions: ratio of minocycline MIC in absence to MIC in presence of test compound, test compound at 12.5 ug/ml (27-48 μM). The format is cell-based. The procedure: Test A. Minimum Inhibitory Concentration (MIC)-Based Assay for Efflux Pump Inhibition:
MIC-based assays were used to evaluate the impact of potential efflux pump inhibiting (EPI) compounds on the MIC of minocycline, an antibiotic known to be a substrate for Gram-negative bacterial efflux pumps. The assays were conducted in accordance with Clinical and Laboratory Standards Institute (CLSI) guidelines for broth microdilution, with the modification that assays were conducted in the presence and absence of the test EPI compounds. When present, the EPI compounds were added to cation-adjusted Mueller-Hinton (CAMH) broth (Becton, Dickinson and Co., Franklin Lakes, N.J.) at a final concentration of 12.5 µg/mL.
Log-phase Gram-negative bacteria were added to 96-well microtiter plates (at 5×10^5 colony forming units (CFU) per mL) containing two-fold serial dilutions of minocycline in CAMH broth either in the absence or presence of the test EPI compounds. In all assays, each serial dilution of minocycline was present in duplicate. The final volume in each well was 0.1 mL, and the microtiter plates were incubated aerobically for 24 hours at 37° C. Bacterial growth was then monitored by measuring the optical density (OD) at 600 nm using a VersaMax® plate reader (Molecular Devices, Inc., Sunnyvale, Calif.), with the MIC being defined as the lowest compound concentration at which growth was ≥90% inhibited compared to antibiotic-free control. The following Gram-negative bacterial strains were included in these assays:
Escherichia coli W4573, ATCC 25922, and ATCC BAA-201 (an extended spectrum […] (ESBL)-producing strain that expresses the TEM-3 β-lactamase).
The efflux pump mutant E. coli strain N43 (acrA1) was used as a positive control.
The enhancement is the ratio of the minocycline MIC in the absence of test compound to the minocycline MIC in the presence of test compound.

`NCCC[C@H](N)CNC(=O)C(Cc1ccccc1)Cc1ccccc1` [Example 7, (S)-2-benzyl-N-(2,5-diaminopentyl)-3-phenylpropanamide]: the Enhancement is listed as 8.

Take `NCCC[C@@H](N)CNC(=O)C(CCc1ccccc1)CCc1ccccc1` [Example 2, (R)—N-(2,5-diaminopentyl)-2-phenethyl-4-phenylbutanamide]: the Enhancement was 64. To `NCCC[C@H](N)CNC(=O)CC(c1ccccc1)c1ccccc1` [Example 9, (S)—N-(2,5-diaminopentyl)-3,3-diphenylpropanamide] belongs 8. Take `NCCC[C@H](N)CNC(=O)CC(Cc1ccccc1)Cc1ccccc1` [Example 12, (S)-3-Benzyl-N-(2,5-diaminopentyl)-4-phenylbutanamide]: the Enhancement was determined as 16.

Regarding `NCC[C@H](N)CNC(=O)C(CCc1ccccc1)CCc1ccccc1` [Example 3, (S)—N-(2,4-diaminobutyl)-2-phenethyl-4-phenylbutanamide], the Enhancement is given as 8. Regarding `NCCC[C@H](N)CNC(=O)CC(CCc1ccccc1)CCc1ccccc1` [Example 13, (S)—N-(2,5-diaminopentyl)-3-phenethyl-5-phenylpentanamide], the Enhancement turned out to be 512.

Consider `NC[C@@H](N)CCCNC(=O)C(CCc1ccccc1)CCc1ccccc1` [Example 5, (S)—N-(4,5-diaminopentyl)-2-phenethyl-4-phenylbutanamide], for which the Enhancement was found to be 2. With `NCCC[C@H](N)CNC(=O)CCCc1ccccc1` [Example 10, (S)—N-(2,5-diaminopentyl)-4-phenylbutanamide], the Enhancement came to 4. The value for `NCCC[C@H](N)CNC(=O)C(CCc1ccccc1)Cc1ccccc1` (stereo partly drawn) [Example 6, 2-benzyl-N—((S)-2,5-diaminopentyl)-4-phenylbutanamide] was 4; that for `COc1ccc(CCC(CCc2ccccc2)C(=O)NC[C@@H](N)CCCN)cc1` (stereo partly shown) [Example 11] was 4. Take `NCCC[C@H](N)CNC(=O)C(c1ccccc1)c1ccccc1` [Example 8, (S)—N-(2,5-diaminopentyl)-2,2-diphenylacetamide]: the Enhancement came to 4.

Take `NCCC[C@H](N)CNC(=O)C(CCc1ccccc1)CCc1ccccc1` [Example 1, (S)—N-(2,5-diaminopentyl)-2-phenethyl-4-phenylbutanamide]: the Enhancement turned out to be 8.

With `NC[C@H](N)CNC(=O)C(CCc1ccccc1)CCc1ccccc1` [Example 4, (S)—N-(2,3-diaminopropyl)-2-phenethyl-4-phenylbutanamide], the Enhancement worked out at 1.
